Several values for one entry are separate records, joined by “and”; a condition that tells them apart may be missing. Equal values may be shown once. Read-outs that look alike come from different tables or passages of the source. Marks after values point to notes of the source that are not given here.
Legend:
[1] = test system: P. falciparum D6 (drug sensitive); assay: 72 h SYBR Green I assay, P. falciparum D6; format: cell-based; settings: Plasmodium falciparum, D6, 72 h, read-out: In vitro activity vs. P. falciparum IC50, D6
[2] = test system: P. falciparum Dd2 (chloroquine resistant); assay: 72 h SYBR Green I assay, P. falciparum Dd2; format: cell-based; settings: Plasmodium falciparum, DD2, 72 h, read-out: In vitro activity vs. P. falciparum IC50, Dd2
[3] = test system: P. falciparum Tm90-C2B (Chloroquine and Atovaquone resistant); assay: 72 h SYBR Green I assay, P. falciparum Tm90-C2B; format: cell-based; settings: Plasmodium falciparum, TM90, 72 h, read-out: In vitro activity vs. P. falciparum IC50, C2B
[4] = test system: blood-stage Plasmodium yoelii; assay: Modified 4-day suppression test in mice; format: in vivo; settings: 4-day Peters Test
P. yoelii = assay: Single dose cure of patent infection in mice; format: in vivo; settings: dose required to clear patent infection without recrudescence for 30 days post-infection, PEG-400
[5] = test system: luciferase-transfected P. berghei sporozoites; format: in vivo, C57BL/6 albino mice; settings: 24 hours prior to sporozoite inoculation
HepG2 cells = assay: Mitochondrial toxicity, CellTiter-Glo ATP in galactose medium; format: cell-based, human; settings: 72 hour incubation
[6] = molecular target: T1, P. falciparum cytochrome bc1 (Plasmodium falciparum, UniProt Q02768); settings: read-out: P. falciparum cytochrome bc1 EC50, cited from earlier work
T1 sequence (Q02768 1-376): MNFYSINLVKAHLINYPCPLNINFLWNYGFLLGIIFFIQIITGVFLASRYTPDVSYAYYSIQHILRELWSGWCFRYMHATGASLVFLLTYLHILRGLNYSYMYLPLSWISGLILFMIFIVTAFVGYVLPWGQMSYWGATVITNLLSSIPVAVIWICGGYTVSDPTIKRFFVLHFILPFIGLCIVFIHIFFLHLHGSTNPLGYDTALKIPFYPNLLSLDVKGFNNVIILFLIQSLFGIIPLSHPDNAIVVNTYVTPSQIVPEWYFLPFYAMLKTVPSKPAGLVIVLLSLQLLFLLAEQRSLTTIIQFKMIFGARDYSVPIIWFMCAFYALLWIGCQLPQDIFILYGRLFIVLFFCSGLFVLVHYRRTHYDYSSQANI

Human cytochrome bc1 [7] = molecular target: T2, Human cytochrome bc1 (Homo sapiens, UniProt P00156); settings: read-out: Human cytochrome bc1 EC50; ref Nilsen, et al. 14; cited from earlier work
[8] = test system: luciferase-transfected P. berghei sporozoites; settings: dosed 1 hour prior to sporozoite inoculation; cited from earlier work
in vitro = in vitro ADME; settings: human, plasma
Human cytochrome bc1 [9] = molecular target: T2, Human cytochrome bc1; assay: Human cytochrome bc1 inhibition; format: biochemical; settings: read-out: Human cytochrome bc1 EC50

CCN(CC)CCCC(C)Nc1ccnc2cc(Cl)ccc12 (stereo not drawn) [CQ, chloroquine]
IC50 [1]: 10 nM
IC50 [2]: 140 nM
IC50 [3]: 98 nM
In vivo efficacy (oral) P. yoelii NRD (non-recrudescence dose) [4]: >64 mg/kg/day
In vivo efficacy (oral) P. yoelii Single Dose Cure (P. yoelii): >64 mg/kg/day

COc1cc2nc(C)c(-c3ccc(Oc4ccc(OC(F)(F)F)cc4)cc3)c(OCOC(=O)OC(C)C)c2cc1Cl [ELQ-330]
In vivo efficacy (oral) P. yoelii Single Dose Cure (P. yoelii): 5.0 mg/kg/day

COc1cc2[nH]c(C)c(-c3ccc(Oc4ccc(OC(F)(F)F)cc4)cc3)c(=O)c2cc1Cl [ELQ-300]
In vivo efficacy (oral) P. yoelii NRD (non-recrudescence dose) [4]: 1 mg/kg/day and 1.0 mg/kg/day
In vivo efficacy (oral) P. yoelii Single Dose Cure (P. yoelii): >20 ^e mg/kg/day
Mice with positive IVIS signal at 24 hours ([5]; 0.1 mg/kg oral): 2/5
Mice with positive IVIS signal at 48 hours ([5]; 0.1 mg/kg oral): 5/5
Mice with no parasitemia ([5]; 1 mg/kg oral): 4/5
Mice with no parasitemia ([5]; 3 mg/kg oral): 5/5
Parasite burden in the liver (IVIS) ([5]; 3 and 1 mg/kg oral): no detectable parasite burden in the liver
Highest concentration without inhibition or alteration of ATP production (HepG2 cells): ≥ 25 µM
EC50 ([6]; ref Nilsen, et al. 14): 0.56 nM
EC50 (Human cytochrome bc1 [7]): > 10000 nM
Fully protective dose against liver stage infection [8]: ≤ 0.03 mg/kg

CC(C)[N+](C)(CCOC(=O)C1c2ccccc2Oc2ccccc21)C(C)C [Propantheline bromide]
half-life at 1 μM (in vitro): 37.5 min

CCOC(=O)OC(C)Oc1c(-c2ccc(Oc3ccc(OC(F)(F)F)cc3)cc2)c(C)nc2cc(OC)c(Cl)cc12 (stereo not drawn) [ELQ-387]
In vivo efficacy (oral) P. yoelii Single Dose Cure (P. yoelii): 5.0 mg/kg/day

CCOC(=O)Oc1c(-c2ccc(Oc3ccc(OC(F)(F)F)cc3)cc2)c(C)nc2cc(OC)c(Cl)cc12 [ELQ-337]
EC50 (Human cytochrome bc1 [9]): > 10000 nM
EC50 ([6]; ref Miley, et al. 26): 10000 nM
